≈ marks a conversion by molar mass, not a printed value. Where “and” joins values, the source holds several entries; their conditions need not be identical. Equal values may be shown once. Read-outs that look alike come from different tables or passages of the source.
Assays:
[1] = tested on: P. aeruginosa cells (PAO1-LAC and derivatives); assay: Fluorescent probe uptake assay, P. aeruginosa strains
[2] = tested on: A. baumannii Ab-ARA-EcPore (hyperporinated); assay: microbe, parasite or virus in culture; assay type: cell-based; conditions: for MIC: Ab-ARA-EcPore, at least three independent measurements
[3] = tested on: P. aeruginosa PAO1-LAC-EcPore (hyperporinated); assay: microbe, parasite or virus in culture; assay type: cell-based; conditions: for MIC: PAO1-LAC-EcPore, at least three independent measurements
[4] = tested on: A. baumannii Ab-ARA (wild type, empty cassette); assay: microbe, parasite or virus in culture; assay type: cell-based; conditions: at least three independent measurements
[5] = tested on: B. cepacia Bc-RHA-BtPore (hyperporinated); assay: microbe, parasite or virus in culture; assay type: cell-based; conditions: for MIC: Bc-RHA-BtPore
[6] = tested on: B. thailandensis Bt-RHA (wild type, empty cassette); assay: microbe, parasite or virus in culture; assay type: cell-based
[7] = tested on: P. aeruginosa PaΔ3-LAC (efflux-deficient); assay: microbe, parasite or virus in culture; assay type: cell-based; conditions: at least three independent measurements
[8] = tested on: B. thailandensis Bt-RHA-BtPore (hyperporinated); assay: microbe, parasite or virus in culture; assay type: cell-based
[9] = tested on: A. baumannii AbΔ3-ARA-EcPore (efflux-deficient, hyperporinated); assay: microbe, parasite or virus in culture; assay type: cell-based; conditions: for MIC: AbΔ3-ARA-EcPore; for Fold change of MIC by efflux inactivation plus hyperporination: AbΔ3-ARA-EcPore vs Ab-ARA
[10] = tested on: B. thailandensis BtΔ2-RHA (efflux-deficient); assay: microbe, parasite or virus in culture; assay type: cell-based
[11] = tested on: A. baumannii cells (Ab-ARA and derivatives); assay: Fluorescent probe uptake assay, A. baumannii strains; conditions: AbΔ3-ARA vs Ab-ARA, fluorescence
[12] = tested on: P. aeruginosa PAO1-LAC (wild type, empty cassette); assay: microbe, parasite or virus in culture; assay type: cell-based; conditions: at least three independent measurements
[13] = tested on: A. baumannii AbΔ3-ARA (efflux-deficient); assay: microbe, parasite or virus in culture; assay type: cell-based; conditions: for MIC: AbΔ3-ARA, at least three independent measurements
[14] = tested on: B. thailandensis cells (Bt-RHA and derivatives)
[15] = tested on: P. aeruginosa PaΔ3-LAC-EcPore (efflux-deficient, hyperporinated); assay: microbe, parasite or virus in culture; assay type: cell-based
[16] = tested on: B. thailandensis BtΔ2-RHA-BtPore (efflux-deficient, hyperporinated); assay: microbe, parasite or virus in culture; assay type: cell-based
[17] = tested on: B. cepacia Bc-RHA (wild type, empty cassette); assay: microbe, parasite or virus in culture; assay type: cell-based
[18] = at least three independent measurements
[19] = PaΔ3-LAC-EcPore, at least three independent measurements
[20] = Acinetobacter baumannii, read-out: MIC
[21] = Pseudomonas aeruginosa, read-out: MIC
[22] = Burkholderia cepacia, read-out: MIC
[23] = Acinetobacter baumannii, at least three independent measurements, read-out: MIC
[24] = Pseudomonas aeruginosa, PaΔ3-LAC-EcPore, at least three independent measurements, read-out: MIC

Molecule | MIC [2] | MIC [3] | MIC [4] | MIC [6] | MIC [7] | MIC [8] | MIC [9, 18] | MIC [10] | MIC [12] | MIC [13] | MIC [15, 19] | MIC [5] | MIC [16] | MIC [17] | other results
CCOc1ccc(-c2nc3ccc(-c4nc5ccc(N6CCN(C)CC6)cc5[nH]4)cc3[nH]2)cc1 [HT, Hoechst 33342] | 3.125 µg/mL (≈ 6.91 µM) | 64 µg/mL (≈ 141 µM) | 25 µg/mL (≈ 55.2 µM) | >64 µM | 16 µg/mL (≈ 35.4 µM) | >64 µM | 0.025 µg/mL | 1 µM | >64 µg/mL | 0.78 µg/mL (≈ 1.72 µM) | 2 µg/mL |  |  |  | Change of intracellular accumulation of probe by inactivation of efflux ([1]; PΔ3-LAC vs PAO1-LAC, fluorescence): lower than those in the parent PAO1-LAC; Fold decrease of MIC (potentiation) by hyperporination ([2]; Abau: Ab-ARA-EcPore vs parent): 4 to 8 fold and 8 fold; Fold decrease of MIC (potentiation) by hyperporination ([3]; Pae: PAO1-LAC-EcPore vs parent): 4 to 8 fold; Fold decrease of MIC (potentiation) by hyperporination ([5]; Bc: Bc-RHA-BtPore vs parent): > 4 fold; MIC [9]: 0.025 to 0.05 µM; Fold change of MIC by efflux inactivation plus hyperporination [9]: 1000 fold; Change of intracellular accumulation of probe by inactivation of efflux [11]: up to 2 fold; Fold reduction of MIC by inactivation of efflux ([13]; Abau: AbΔ3-ARA vs Ab-ARA): 32 fold; Change of intracellular accumulation of probe by inactivation of efflux [14]: up to 2 fold; MIC ([15]; PΔ3-LAC-EcPore): 2.0 µM
c1ccc(Nc2cccc3ccccc23)cc1 [NPN, N-phenyl-1-naphthylamine] |  |  |  |  |  |  |  |  |  |  |  |  |  |  | Probe levels in efflux-deficient hyperporinated cells vs parent ([1]; PΔ3-LAC-EcPore vs PAO1-LAC): only slightly higher than in PAO1-LAC cells; Change of intracellular accumulation of probe by inactivation of efflux [11]: higher levels of NPN accumulation than in hyperporinated cells; Change of intracellular accumulation of probe by inactivation of efflux [14]: higher levels of NPN accumulation than in hyperporinated cells
Oc1cc(Cl)ccc1Oc1ccc(Cl)cc1Cl [Triclosan] |  |  |  |  |  |  |  |  |  |  |  |  |  |  | MIC [2, 20]: 0.063 µg/mL (≈ 0.218 µM); MIC [3, 21]: 1020 µg/mL (≈ 3540 µM); MIC [4, 20]: 0.125 µg/mL (≈ 0.432 µM); MIC [5, 22]: 60 µg/mL (≈ 207 µM); MIC ([6]; Burkholderia thailandensis): 120 µg/mL; MIC [7, 21]: 32 µg/mL (≈ 111 µM); MIC ([8]; Burkholderia thailandensis): 30 µg/mL; MIC [9, 23]: 0.001 µg/mL; MIC ([10]; Burkholderia thailandensis): 0.12 µg/mL; MIC [12, 21]: 1020 µg/mL (≈ 3540 µM); MIC [13, 20]: 0.002 µg/mL (≈ 0.00691 µM); MIC [15, 24]: 8 µg/mL; MIC ([16]; Burkholderia thailandensis): 0.06 µg/mL (≈ 0.207 µM); MIC [17, 22]: > 120 µg/mL
CN[C@H](CC(C)C)C(=O)N[C@H]1C(=O)N[C@@H](CC(N)=O)C(=O)N[C@H]2C(=O)N[C@H]3C(=O)N[C@H](C(=O)N[C@H](C(=O)O)c4cc(O)cc(O)c4-c4cc3ccc4O)[C@H](O)c3ccc(c(Cl)c3)Oc3cc2cc(c3O[C@@H]2O[C@H](CO)[C@@H](O)[C@H](O)[C@H]2O[C@H]2C[C@](C)(N)[C@H](O)[C@H](C)O2)Oc2ccc(cc2Cl)[C@H]1O [Vancomycin] |  |  |  |  |  | 256 to 512 µg/mL |  |  |  |  |  |  |  |  | MIC [2, 20]: 128 µg/mL (≈ 88.3 µM); MIC [3, 21]: 128 µg/mL (≈ 88.3 µM); MIC [4, 20]: 1020 µg/mL (≈ 707 µM); MIC [5, 22]: 8 µg/mL (≈ 5.52 µM); MIC ([6]; Burkholderia thailandensis): > 1020 µg/mL; MIC [7, 21]: 1020 µg/mL (≈ 707 µM); MIC [9, 23]: 128 µg/mL; MIC ([10]; Burkholderia thailandensis): > 1020 µg/mL; MIC [12, 21]: 1020 µg/mL (≈ 707 µM); MIC [13, 20]: 1020 µg/mL (≈ 707 µM); MIC [15, 24]: 64 µg/mL; MIC ([16]; Burkholderia thailandensis): 4 to 8 µg/mL (≈ 2.76 to 5.52 µM); MIC [17, 22]: > 1020 µg/mL
Cc1c(N)nc([C@H](CC(N)=O)NC[C@H](N)C(N)=O)nc1C(=O)N[C@H](C(=O)N[C@H](C)[C@@H](O)[C@H](C)C(=O)N[C@H](C(=O)NCCC1=N[C@@H](c2nc(C(=O)NCCCCN=C(N)N)cs2)CS1)[C@@H](C)O)[C@@H](O[C@@H]1O[C@@H](CO)[C@@H](O)[C@H](O)[C@@H]1O[C@H]1O[C@H](CO)[C@@H](O)[C@H](OC(N)=O)[C@@H]1O)c1cnc[nH]1 [Zeocin] | 0.5 µg/mL (≈ 0.35 µM) | 32 to 64 µg/mL | 8 µg/mL (≈ 5.6 µM) | 512 µg/mL | 16 µg/mL (≈ 11.2 µM) | 128 µg/mL | 0.125 µg/mL | 2 µg/mL | 512 µg/mL (≈ 359 µM) | 1 µg/mL (≈ 0.701 µM) | 2 µg/mL | 128 µg/mL (≈ 89.7 µM) | 0.12 µg/mL (≈ 0.0841 µM) | >1024 µg/mL | Fold change of MIC by efflux inactivation plus hyperporination [9]: 64 fold; Fold change of MIC by efflux inactivation plus hyperporination ([15]; PaeΔ3-LAC-Pore vs parent): 256 fold; Fold change of MIC by efflux inactivation plus hyperporination [16]: 4096 fold
Polymyxin B | 0.25 µg/mL | 1.5 µg/mL | 0.25 µg/mL | >1024 µg/mL | 1.5 µg/mL | >1024 µg/mL | 0.125 µg/mL | >1024 µg/mL | 1.5 µg/mL | 0.125 µg/mL | 1.5 µg/mL | 512 µg/mL | 128 µg/mL | >1024 µg/mL | 
Tobramycin [Tobramycin + Mg^2+] | 2 µg/mL | 1 µg/mL | 4 µg/mL | 64 µg/mL | 0.5 µg/mL | 64 µg/mL | 2 µg/mL | 1 µg/mL | 2 µg/mL | 4 µg/mL | 0.5 µg/mL | 4 µg/mL | 1 µg/mL | 32 to 64 µg/mL | 
